Values after ≈ are worked out from the molar mass of the structure shown.
How the values were obtained:
[1] = tested on: Staphylococcus aureus FDA 209P; assay: Antibacterial MIC, standard serial dilution; assay type: cell-based; details: nutrient agar, 37° C., 17 hours, as free base
[2] = tested on: Staphylococcus aureus Smith; assay: Antibacterial MIC, standard serial dilution; assay type: cell-based; details: nutrient agar, 37° C., 17 hours, as free base
[3] = tested on: Staphylococcus aureus Ap01; assay: Antibacterial MIC, standard serial dilution; assay type: cell-based; details: nutrient agar, 37° C., 17 hours, as free base
[4] = tested on: Staphylococcus epidermidis 109; assay: Antibacterial MIC, standard serial dilution; assay type: cell-based; details: nutrient agar, 37° C., 17 hours, as free base
[5] = tested on: Micrococcus flavus FDA 16; assay: Antibacterial MIC, standard serial dilution; assay type: cell-based; details: nutrient agar, 37° C., 17 hours, as free base
Sarcina lutea PCI 1001 = assay: Antibacterial MIC, standard serial dilution; assay type: cell-based; details: nutrient agar, 37° C., 17 hours, as free base
Bacillus anthracis = assay type: cell-based; details: nutrient agar, 37° C., 17 hours, as free base
[6] = tested on: Bacillus subtilis PCI 219; assay: Antibacterial MIC, standard serial dilution; assay type: cell-based; details: nutrient agar, 37° C., 17 hours, as free base
[7] = tested on: Bacillus subtilis NRRL B-558; assay: Antibacterial MIC, standard serial dilution; assay type: cell-based; details: nutrient agar, 37° C., 17 hours, as free base
[8] = tested on: Bacillus cereus ATCC 10702; assay: Antibacterial MIC, standard serial dilution; assay type: cell-based; details: nutrient agar, 37° C., 17 hours, as free base
[9] = tested on: Corynebacterium bovis 1810; assay: Antibacterial MIC, standard serial dilution; assay type: cell-based; details: nutrient agar, 37° C., 17 hours, as free base
[10] = tested on: Mycobacterium smegmatis ATCC 607; assay: Antibacterial MIC, standard serial dilution; assay type: cell-based; details: nutrient agar, 37° C., 17 hours, as free base
Escherichia coli NIHJ = assay: Antibacterial MIC, standard serial dilution; assay type: cell-based; details: nutrient agar, 37° C., 17 hours, as free base
Escherichia coli K-12 = assay: Antibacterial MIC, standard serial dilution; assay type: cell-based; details: nutrient agar, 37° C., 17 hours, as free base
[11] = tested on: Escherichia coli K-12 R388; assay: Antibacterial MIC, standard serial dilution; assay type: cell-based; details: nutrient agar, 37° C., 17 hours, as free base
[12] = tested on: Escherichia coli K-12 J5R11-2; assay: Antibacterial MIC, standard serial dilution; assay type: cell-based; details: nutrient agar, 37° C., 17 hours, as free base
[13] = tested on: Escherichia coli K-12 ML1629; assay: Antibacterial MIC, standard serial dilution; assay type: cell-based; details: nutrient agar, 37° C., 17 hours, as free base
[14] = tested on: Escherichia coli K-12 ML1630; assay: Antibacterial MIC, standard serial dilution; assay type: cell-based; details: nutrient agar, 37° C., 17 hours, as free base
[15] = tested on: Escherichia coli K-12 ML1410; assay: Antibacterial MIC, standard serial dilution; assay type: cell-based; details: nutrient agar, 37° C., 17 hours, as free base
[16] = tested on: Escherichia coli K-12 LA290 R55; assay: Antibacterial MIC, standard serial dilution; assay type: cell-based; details: nutrient agar, 37° C., 17 hours, as free base
[17] = tested on: Escherichia coli K-12 LA290 R56; assay: Antibacterial MIC, standard serial dilution; assay type: cell-based; details: nutrient agar, 37° C., 17 hours, as free base
Escherichia coli W677 = assay: Antibacterial MIC, standard serial dilution; assay type: cell-based; details: nutrient agar, 37° C., 17 hours, as free base
[18] = tested on: Escherichia coli JR66/W677; assay: Antibacterial MIC, standard serial dilution; assay type: cell-based; details: nutrient agar, 37° C., 17 hours, as free base
[19] = tested on: Escherichia coli K-12 C600 R135; assay: Antibacterial MIC, standard serial dilution; assay type: cell-based; details: nutrient agar, 37° C., 17 hours, as free base
Escherichia coli JR225 = assay: Antibacterial MIC, standard serial dilution; assay type: cell-based; details: nutrient agar, 37° C., 17 hours, as free base
[20] = tested on: Klebsiella pneumoniae PCI602; assay: Antibacterial MIC, standard serial dilution; assay type: cell-based; details: nutrient agar, 37° C., 17 hours, as free base
[21] = tested on: Klebsiella pneumoniae 22#3038; assay: Antibacterial MIC, standard serial dilution; assay type: cell-based; details: nutrient agar, 37° C., 17 hours, as free base
[22] = tested on: Shigella dysenteriae JS11910; assay: Antibacterial MIC, standard serial dilution; assay type: cell-based; details: nutrient agar, 37° C., 17 hours, as free base
Salmonella typhi T-63 = assay: Antibacterial MIC, standard serial dilution; assay type: cell-based; details: nutrient agar, 37° C., 17 hours, as free base
[23] = tested on: Salmonella enteritidis 1891; assay: Antibacterial MIC, standard serial dilution; assay type: cell-based; details: nutrient agar, 37° C., 17 hours, as free base
Proteus vulgaris 0X19 = assay: Antibacterial MIC, standard serial dilution; assay type: cell-based; details: nutrient agar, 37° C., 17 hours, as free base
Proteus rettgeri GN311 = assay: Antibacterial MIC, standard serial dilution; assay type: cell-based; details: nutrient agar, 37° C., 17 hours, as free base
Proteus rettgeri GN466 = assay: Antibacterial MIC, standard serial dilution; assay type: cell-based; details: nutrient agar, 37° C., 17 hours, as free base
Serratia marcescens = assay: Antibacterial MIC, standard serial dilution; assay type: cell-based; details: nutrient agar, 37° C., 17 hours, as free base
Serratia sp. SOU = assay: Antibacterial MIC, standard serial dilution; assay type: cell-based; details: nutrient agar, 37° C., 17 hours, as free base
Serratia sp. 4 = assay: Antibacterial MIC, standard serial dilution; assay type: cell-based; details: nutrient agar, 37° C., 17 hours, as free base
Providencia sp. Pv16 = assay: Antibacterial MIC, standard serial dilution; assay type: cell-based; details: nutrient agar, 37° C., 17 hours, as free base
Providencia sp. 2991 = assay: Antibacterial MIC, standard serial dilution; assay type: cell-based; details: nutrient agar, 37° C., 17 hours, as free base
[24] = tested on: Pseudomonas aeruginosa A3; assay: Antibacterial MIC, standard serial dilution; assay type: cell-based; details: nutrient agar, 37° C., 17 hours, as free base
[25] = tested on: Pseudomonas aeruginosa No. 12; assay: Antibacterial MIC, standard serial dilution; assay type: cell-based; details: nutrient agar, 37° C., 17 hours, as free base
[26] = tested on: Pseudomonas aeruginosa H9; assay: Antibacterial MIC, standard serial dilution; assay type: cell-based; details: nutrient agar, 37° C., 17 hours, as free base
[27] = tested on: Pseudomonas aeruginosa H11; assay: Antibacterial MIC, standard serial dilution; assay type: cell-based; details: nutrient agar, 37° C., 17 hours, as free base
[28] = tested on: Pseudomonas aeruginosa TI-13; assay: Antibacterial MIC, standard serial dilution; assay type: cell-based; details: nutrient agar, 37° C., 17 hours, as free base
[29] = tested on: Pseudomonas aeruginosa GN315; assay: Antibacterial MIC, standard serial dilution; assay type: cell-based; details: nutrient agar, 37° C., 17 hours, as free base
[30] = tested on: Pseudomonas aeruginosa 99; assay: Antibacterial MIC, standard serial dilution; assay type: cell-based; details: nutrient agar, 37° C., 17 hours, as free base
[31] = tested on: Pseudomonas aeruginosa B-13; assay: Antibacterial MIC, standard serial dilution; assay type: cell-based; details: nutrient agar, 37° C., 17 hours, as free base
[32] = tested on: Pseudomonas aeruginosa 21-75; assay: Antibacterial MIC, standard serial dilution; assay type: cell-based; details: nutrient agar, 37° C., 17 hours, as free base
[33] = tested on: Pseudomonas aeruginosa PST1; assay: Antibacterial MIC, standard serial dilution; assay type: cell-based; details: nutrient agar, 37° C., 17 hours, as free base
[34] = tested on: Pseudomonas aeruginosa ROS 134/PU21; assay: Antibacterial MIC, standard serial dilution; assay type: cell-based; details: nutrient agar, 37° C., 17 hours, as free base
[35] = tested on: Pseudomonas aeruginosa K-Ps 102; assay: Antibacterial MIC, standard serial dilution; assay type: cell-based; details: nutrient agar, 37° C., 17 hours, as free base
[36] = tested on: Pseudomonas maltophilia GN 907; assay: Antibacterial MIC, standard serial dilution; assay type: cell-based; details: nutrient agar, 37° C., 17 hours, as free base
bacteria = details: in words; earlier work; cited from earlier work

`CNCC1CCC(N)C(OC2C(N)CC(O)C(N(C)C(=O)CN)C2O)O1` (stereo not shown) [Demethyl ista B, 3-O-demethylistamycin B] showed an MIC [1] of 0.39 µg/mL (≈ 1.04 µM), an MIC [2] of 0.39 µg/mL (≈ 1.04 µM) and an MIC [3] of 0.39 µg/mL (≈ 1.04 µM). It also gave an MIC [4] of 0.39 µg/mL (≈ 1.04 µM), an MIC [5] of 3.13 µg/mL (≈ 8.34 µM) and an MIC (Sarcina lutea PCI 1001) of 0.39 µg/mL (≈ 1.04 µM). For the same compound, the MIC (Bacillus anthracis) was 0.78 µg/mL (≈ 2.08 µM), the MIC [6] was 0.39 µg/mL (≈ 1.04 µM) and the MIC [7] was 0.39 µg/mL (≈ 1.04 µM). It also gave an MIC [8] of 1.56 µg/mL (≈ 4.15 µM), an MIC [9] of 0.39 µg/mL (≈ 1.04 µM) and an MIC [10] of 0.78 µg/mL (≈ 2.08 µM). The MIC (Escherichia coli NIHJ) was 0.39 µg/mL (≈ 1.04 µM), the MIC (Escherichia coli K-12) was 0.78 µg/mL (≈ 2.08 µM) and the MIC [11] was 0.78 µg/mL (≈ 2.08 µM). It also gave an MIC [12] of 1.56 µg/mL (≈ 4.15 µM), an MIC [13] of 1.56 µg/mL (≈ 4.15 µM) and an MIC [14] of 3.13 µg/mL (≈ 8.34 µM). It also gave an MIC [15] of 3.13 µg/mL (≈ 8.34 µM), an MIC [16] of 0.78 µg/mL (≈ 2.08 µM) and an MIC [17] of 0.78 µg/mL (≈ 2.08 µM). It also gave an MIC (Escherichia coli W677) of 0.78 µg/mL (≈ 2.08 µM), an MIC [18] of 1.56 µg/mL (≈ 4.15 µM) and an MIC [19] of 1.56 µg/mL (≈ 4.15 µM). It also gave an MIC (Escherichia coli JR225) of 0.78 µg/mL (≈ 2.08 µM), an MIC [20] of 1.56 µg/mL (≈ 4.15 µM) and an MIC [21] of 3.13 µg/mL (≈ 8.34 µM). The MIC [22] was 3.13 µg/mL (≈ 8.34 µM), the MIC (Salmonella typhi T-63) was 0.39 µg/mL (≈ 1.04 µM) and the MIC [23] was 1.56 µg/mL (≈ 4.15 µM). It also gave an MIC (Proteus vulgaris 0X19) of 0.39 µg/mL (≈ 1.04 µM), an MIC (Proteus rettgeri GN311) of 0.39 µg/mL (≈ 1.04 µM) and an MIC (Proteus rettgeri GN466) of 0.39 µg/mL (≈ 1.04 µM). For the same compound, the MIC (Serratia marcescens) was 1.56 µg/mL (≈ 4.15 µM), the MIC (Serratia sp. SOU) was 6.25 µg/mL (≈ 16.6 µM) and the MIC (Serratia sp. 4) was 12.5 µg/mL (≈ 33.3 µM). For the same compound, the MIC (Providencia sp. Pv16) was 0.78 µg/mL (≈ 2.08 µM), the MIC (Providencia sp. 2991) was 1.56 µg/mL (≈ 4.15 µM) and the MIC [24] was 0.20 µg/mL (≈ 0.533 µM). For the same compound, the MIC [25] was 12.5 µg/mL (≈ 33.3 µM), the MIC [26] was 12.5 µg/mL (≈ 33.3 µM) and the MIC [27] was 25 µg/mL (≈ 66.6 µM). The MIC [28] was 6.25 µg/mL (≈ 16.6 µM), the MIC [29] was 6.25 µg/mL (≈ 16.6 µM) and the MIC [30] was 25 µg/mL (≈ 66.6 µM). It also gave an MIC [31] of 25 µg/mL (≈ 66.6 µM), an MIC [32] of 25 µg/mL (≈ 66.6 µM) and an MIC [33] of 12.5 µg/mL (≈ 33.3 µM). For the same compound, the MIC [34] was 50 µg/mL (≈ 133 µM), the MIC [35] was 6.25 µg/mL (≈ 16.6 µM) and the MIC [36] was 100 µg/mL (≈ 266 µM). The antibacterial activity (bacteria) was “active not only against Pseudomonas aeruginosa but also against a variety of resistant bacteria”.

From US4479943A, “3-Demethoxyistamycin B, the 2"-N-formimidoyl derivative thereof and pharmaceutical composition containing same” (Zaidan Hojin Biseibutsu Kagaku Kenkyu Kai, priority 1982, dated 1984)
